Source: ChEMBL document CHEMBL1152484, “3D-QSAR studies on the inhibitors of AP-1 and NF-kappaB mediated transcriptional activation” (Eur J Med Chem, 2009)

Assay: Inhibition of AP-1/NF-kappaB transfected in human jurkat T cells assessed as inhibition of transcriptional activation
Assay type: cell-based

Compound | IC50 [nM]
CC1=CC(=O)N(Nc2nc(C(F)(F)F)nc3cc(N4CCCCC4)ccc23)C1=O | 200
CC1=CC(=O)N(Nc2nc(C(F)(F)F)nc3ccccc23)C1=O | 100
CC1=CC(=O)N(Nc2nc(C(F)(F)F)nc3ccc(S(C)(=O)=O)cc23)C1=O | 8990
COc1ccc2nc(C(F)(F)F)nc(NN3C(=O)C=C(C)C3=O)c2c1 | 30
COc1ccc2c(NN3C(=O)C=C(C)C3=O)nc(-c3cccs3)nc2c1 | 20
COc1cccc2c(NN3C(=O)C=C(C)C3=O)nc(-c3cccs3)nc12 | 50
CC1=CC(=O)N(Nc2nc(-c3cccs3)nc3ccccc23)C1=O | 60
COc1cc2nc(-c3cccs3)nc(NN3C(=O)C=C(C)C3=O)c2cc1OC | 50
CC1=CC(=O)N(Nc2nc(-c3cccs3)nc3ccc(Cl)cc23)C1=O | 20
CC1=CC(=O)N(Nc2nc(C(F)(F)F)nc3ccc(O)cc23)C1=O | 100
CC1=CC(=O)N(Nc2nc(-c3cccs3)nc3cccc(F)c23)C1=O | 50
COc1cccc2nc(C(F)(F)F)nc(NN3C(=O)C=C(C)C3=O)c12 | 10
CC1=CC(=O)N(Nc2nc(-c3cccs3)nc3cccc(C)c23)C1=O | 20
CC1=CC(=O)N(Nc2nc(-c3cccs3)nc3cc(N4CCOCC4)ccc23)C1=O | 200
CSc1ccc2nc(C(F)(F)F)nc(NN3C(=O)C=C(C)C3=O)c2c1 | 80
CCOC(=O)c1cnc(S(=O)(=O)c2ccccc2)nc1NN1C(=O)C=C(C)C1=O | 10000
CCOC(=O)c1cnc(-c2cccc(OC)c2)nc1NN1C(=O)C=C(C)C1=O | 5000
CCOC(=O)c1cnc(C(F)(F)F)nc1NN1C(=O)C=C(c2ccccc2)C1=O | 20000
CCOC(=O)c1cnc(-c2ccc(C(F)(F)F)cc2)nc1NN1C(=O)C=C(C)C1=O | 400
CC1=CC(=O)N(Nc2nc(-c3cccs3)ncc2-c2nc(C)co2)C1=O | 200
CC1=CC(=O)N(Nc2nc(-c3cccs3)ncc2C2=NCCO2)C1=O | 200
CCOC(=O)c1cnc(-c2cc(Cl)cc(Cl)c2)nc1NN1C(=O)C=C(C)C1=O | 300
CC1=CC(=O)N(Nc2nc(-c3cccs3)ncc2-c2nnc(C)o2)C1=O | 300

Compound | IC50 [nM]
CCOC(=O)c1cnc(-c2cccc([N+](=O)[O-])c2)nc1NN1C(=O)C=C(C)C1=O | 7000
CCOC(=O)c1cnc(-c2ccccc2)nc1N(C(C)=O)N1C(=O)C=C(C)C1=O | 4000
CCOC(=O)c1cnc(-c2ccc(OC)cc2)nc1NN1C(=O)C=C(C)C1=O | 899
CCOC(=O)c1cnc(-c2ccncc2)nc1NN1C(=O)C=C(C)C1=O | 6000
CCOC(=O)c1cnc(Cc2ccccc2)nc1NN1C(=O)C=C(C)C1=O | 7000
CC1=CC(=O)N(Nc2nc(-c3ccccc3)nc3ccccc23)C1=O | 100
COc1cc2c(NN3C(=O)C=C(C)C3=O)nc(-c3cccs3)nc2c(OC)c1OC | 40
CC1=CC(=O)N(Nc2nc(C(F)(F)F)nc3ccc([S+](C)[O-])cc23)C1=O (stereo not drawn) | 1000
CC1=CC(=O)N(Nc2nc(C(F)(F)F)nc3cccc(C)c23)C1=O | 400
CC1=CC(=O)N(Nc2nc(-c3cccs3)nc3cc(N(C)C)ccc23)C1=O | 40
CC1=CC(=O)N(Nc2nc(C(F)(F)F)nc3cc(N(C)C)ccc23)C1=O | 20
COc1ccc2nc(-c3cccs3)nc(NN3C(=O)C=C(C)C3=O)c2c1 | 3
CCOC(=O)c1cnc(C2CC2)nc1NN1C(=O)C=C(C)C1=O | 1000
CCOC(=O)c1cnc(-c2ccccc2)nc1N(C)N1C(=O)C=C(C)C1=O | 2000
CCOC(=O)c1cnc(CC)nc1N(C)N1C(=O)C=C(C)C1=O | 10000
CCOC(=O)c1cnc(-c2cccc(Br)c2)nc1NN1C(=O)C=C(C)C1=O | 700
CCOC(=O)c1cnc(Oc2ccccc2)nc1NN1C(=O)C=C(C)C1=O | 15000
CCOC(=O)c1cnc(-c2ccc(Cl)cc2)nc1NN1C(=O)C=C(C)C1=O | 300
CCOC(=O)c1cnc(C(C)(C)C)nc1NN1C(=O)C=C(C)C1=O | 1000
CC1=CC(=O)N(Nc2nc(-c3cccs3)ncc2C#N)C1=O | 5000
CCOC(=O)c1cnc(-c2cccs2)nc1N(C)N1C(=O)C=C(C)C1=O | 1000
CCOC(=O)c1cnc(-c2ccc(C)s2)nc1NN1C(=O)C=C(C)C1=O | 200
CCOC(=O)c1cnc(C(F)(F)F)nc1NN1C(=O)C=CC1=O | 10000

Compound | IC50 [nM]
CCOC(=O)c1cnc(C(F)(F)F)nc1NN1C(=O)C=C(C)C1=O | 1000
CCOC(=O)c1cnc(-c2cnc3ccccc3c2)nc1NN1C(=O)C=C(C)C1=O | 10000
CCOC(=O)c1cnc(-c2ccccc2)nc1NN1C(=O)C=C(C)C1=O | 100
CCOC(=O)c1cnc(-c2csc(C)n2)nc1NN1C(=O)C=C(C)C1=O | 8000
CCOC(=O)c1cnc(C)nc1NN1C(=O)C=C(C)C1=O | 16000
CCOC(=O)c1cnc(-c2cc3ccccc3s2)nc1NN1C(=O)C=C(C)C1=O | 4000
CCOC(=O)c1cnc(C(=O)c2ccco2)nc1NN1C(=O)C=C(C)C1=O | 200
CCOC(=O)c1cnc(-c2ccc(Cl)s2)nc1NN1C(=O)C=C(C)C1=O | 300
CCOC(=O)c1cnc(CC2=CCCCC2)nc1NN1C(=O)C=C(C)C1=O | 2000
CCOC(=O)c1cnc(-c2ccc(F)cc2)nc1NN1C(=O)C=C(C)C1=O | 700
CC1=CC(=O)N(Nc2nc(-c3cccs3)ncc2-c2nnn(C)n2)C1=O | 200
CCOC(=O)c1cnc(-c2cccs2)nc1NN1C(=O)C=C(C)C1=O | 20
CCOC(=O)c1cnc(-c2ccc(F)cc2)nc1N(C)N1C(=O)C=C(C)C1=O | 3000
CCOC(=O)c1cnc(CC)nc1NN1C(=O)C=C(C)C1=O | 10000
CCOC(=O)c1cnc(-c2ccsc2)nc1NN1C(=O)C=C(C)C1=O | 100
CCOC(=O)c1cnc(C(F)(F)F)nc1NN1C(=O)C(C)=C(C)C1=O | 10000
CCOC(=O)c1cnc(-c2cc(Cl)nc(Cl)c2)nc1NN1C(=O)C=C(C)C1=O | 2000
CCOC(=O)c1cnc(SC)nc1NN1C(=O)C=C(C)C1=O | 200
CC1=CC(=O)N(Nc2nc(-c3cccs3)ncc2-c2cc(C)no2)C1=O | 300
CCOC(=O)c1cnc(Sc2ccccc2)nc1NN1C(=O)C=C(C)C1=O | 1000
CCOC(=O)c1cnc(-n2nc(C)cc2C)nc1NN1C(=O)C=C(C)C1=O | 10000
COc1cccc2nc(-c3cccs3)nc(NN3C(=O)C=C(C)C3=O)c12 [AS-602868] | 8
